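Values below derive from 48-hour exposures of cells grown in 96-well plates, with endpoints linearly interpolated between the two concentrations bracketing the appropriate inhibition level. GI50 = concentration required for 50% inhibition of growth. The concentration for full growth arrest is given as TGI.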
Assays:
Test in all cases: NCI anticancer screen, dose series, 48 h
[1] = tested on: CCRF-CEM leukemia
[2] = tested on: HS 578T breast
[3] = tested on: EKVX NSCLC
[4] = tested on: SK-MEL-2 melanoma
[5] = tested on: HOP-92 NSCLC
[6] = tested on: SK-OV-3 ovarian
[7] = tested on: RXF 393 renal
[8] = tested on: RPMI-8226 leukemia
[9] = tested on: U251 CNS
[10] = tested on: OVCAR-3 ovarian
[11] = tested on: DU-145 prostate
[12] = tested on: MCF7 breast
[13] = tested on: HCT-15 colon
[14] = tested on: K-562 leukemia
[15] = tested on: OVCAR-4 ovarian
[16] = tested on: OVCAR-8 ovarian
[17] = tested on: CAKI-1 renal
[18] = tested on: NCI-H23 lung
[19] = tested on: SK-MEL-5 melanoma
[20] = tested on: NCI-H460 lung
[21] = tested on: NCI-H522 lung
[22] = tested on: TK-10 renal
[23] = tested on: NCI-H226 lung
[24] = tested on: HL-60(TB) leukemia
[25] = tested on: M14 melanoma
[26] = tested on: IGROV1 ovarian
[27] = tested on: A549 NSCLC
[28] = tested on: A498 renal
[29] = tested on: 786-0 renal

O=C1CCC(N2Cc3c(C#CCCCNC(=O)c4cc5c(o4)C(=O)c4ccccc4C5=O)cccc3C2=O)C(=O)N1 (stereo not drawn)
GI50 [1]: 4.42 µM
TGI [1]: 55.4 µM
GI50 [2]: 2.39 µM
TGI [2]: 5.64 µM
GI50 [3]: 15 µM
TGI [3]: 31.1 µM
GI50 [4]: 2.54 µM
TGI [4]: 6.47 µM
GI50 [5]: 9.07 µM
TGI [5]: 26 µM
GI50 [6]: 15.9 µM
TGI [6]: 30.4 µM
GI50 [7]: 4.55 µM
TGI [7]: 18.2 µM
GI50 [8]: 6.93 µM
TGI [8]: 30.1 µM
GI50 [9]: 2.87 µM
TGI [9]: 8.07 µM
GI50 [10]: 1.97 µM
TGI [10]: 4.8 µM
GI50 [11]: 1.82 µM
TGI [11]: 3.28 µM
GI50 [12]: 1.63 µM
TGI [12]: 3.73 µM
GI50 [13]: 16.4 µM
TGI [13]: 45.4 µM
GI50 [14]: 3.11 µM
TGI [14]: 16.6 µM
GI50 [15]: 1.88 µM
TGI [15]: 4.73 µM
GI50 [16]: 3.24 µM
TGI [16]: 87 µM
GI50 [17]: 14.3 µM
TGI [17]: 30.7 µM
GI50 [18]: 1.58 µM
TGI [18]: 4.44 µM
GI50 [19]: 1.75 µM
TGI [19]: 3.25 µM
GI50 [20]: 1.99 µM
TGI [20]: 4.09 µM
GI50 [21]: 1.98 µM
TGI [21]: 4.61 µM
GI50 [22]: 33.1 µM
TGI [22]: 50.2 µM
GI50 [23]: 12.5 µM
TGI [23]: 30.2 µM
GI50 [24]: 2.37 µM
TGI [24]: 7.34 µM
GI50 [25]: 1.85 µM
TGI [25]: 3.59 µM
GI50 [26]: 4.03 µM
TGI [26]: 17.2 µM
GI50 [27]: 12.6 µM
TGI [27]: 32.9 µM
GI50 [28]: 14.2 µM
TGI [28]: 27.5 µM
GI50 [29]: 15.3 µM
TGI [29]: 32 µM
